From ChEMBL document CHEMBL3751765, “Efavirenz a nonnucleoside reverse transcriptase inhibitor of first-generation: Approaches based on its medicinal chemistry” (Eur J Med Chem, 2016)

target: Human immunodeficiency virus type 1 reverse transcriptase (Human immunodeficiency virus 1, UniProt Q72547); experiment: Inhibition of HIV1 reverse transcriptase; conditions: not given

| IC50 | SMILES |
| --- | --- |
| 6 nM | C#CC1(C2CC2)c2cc(Cl)ccc2NC(=O)N1C (stereo not drawn) |
| 950 nM | O=S1(c2ccccc2)=NC(=S)Nc2ccccc21 (stereo not drawn) |
| 56 nM | CCOC1(c2ccccc2)c2cc(Cl)ccc2NC(=O)N1C (stereo not drawn) |
| 45 nM | CC[C@H]1C(=O)Nc2ccc(F)cc2N1C(=O)OC(C)C [OPAVIRALINE] |
| 2 nM | COc1ccc2c(c1)N(C(=O)OC(C)C)[C@@H](CSC)C(=O)N2 |
| 46 nM | C[C@@H]1O[C@](/C=C/C2CC2)(C(F)(F)F)c2cc(Cl)ccc2NC1=O |
| 800 nM | CC(C)=CCN1C(C)C(=O)Nc2ccc(Cl)cc2S1(=O)=O (stereo not drawn) |

| SMILES | IC50 |
| --- | --- |
| C=CCC[C@]12C[C@@]1(C(=O)OCC)C(=O)Nc1ccc(Br)cc12 | 1 nM |
| CCCCC[C@]12C[C@@]1(C(=O)OCC)C(=O)Nc1ccc(Br)cc12 | 1 nM |
| CCOC(=O)[C@@H]1C[C@@]12C(=O)Nc1ccc(Cl)cc12 | 59 nM |

system: not listed separately; experiment: Half life in human administered as single dose; assay type: ADME, organism-based; conditions: in vivo

| half-life | SMILES |
| --- | --- |
| 52 h | O=C1Nc2ccc(Cl)cc2[C@@](C#CC2CC2)(C(F)(F)F)O1 [EFAVIRENZ] |

system: not listed separately; experiment: Half life in human administered as multiple doses; assay type: ADME, organism-based; conditions: in vivo

| half-life | SMILES |
| --- | --- |
| 40 h | O=C1Nc2ccc(Cl)cc2[C@@](C#CC2CC2)(C(F)(F)F)O1 [EFAVIRENZ] |

system: not listed separately; experiment: Tmax in human plasma after the first dose of drug; assay type: ADME, organism-based; conditions: not given

| Tmax | SMILES |
| --- | --- |
| 5 h | O=C1Nc2ccc(Cl)cc2[C@@](C#CC2CC2)(C(F)(F)F)O1 [EFAVIRENZ] |

target: Human immunodeficiency virus type 1 reverse transcriptase (Human immunodeficiency virus 1) (UniProt Q72547); conditions: not given

| IC90 | SMILES |
| --- | --- |
| 8.33 nM | CN(C)c1ccc2c(c1)[C@@](C#CC1CC1)(C(F)(F)F)OC(=O)N2 |
| 296 nM | CC(=O)Nc1ccc2c(c1)[C@@](C#CC1CC1)(C(F)(F)F)OC(=O)N2 |
| 10.2 nM | CCCCO[C@]1(C(F)(F)F)OC(=O)Nc2ccc(Cl)cc21 |
| 40 nM | CN1C(=O)C(O)(C#CC2CC2)c2ccccc21 (stereo not drawn) |
| 18.9 nM | O=C1Nc2ccc(OC(F)(F)F)cc2[C@@](C#CC2CC2)(C(F)(F)F)O1 |
| 6 nM | Cc1ccc2c(c1)C(O)(C#CC1CC1)C(=O)N2C (stereo not drawn) |
| 7.11 nM | Cc1ccc2c(c1)[C@@](C#CC1CC1)(C(F)(F)F)OC(=O)N2 |
| 2.7 nM | O=C1Nc2ccc(Cl)cc2[C@@](C#CC2CC2)(C(F)(F)F)N1 |
| 3 nM | CC(C)C#C[C@]1(C(F)(F)F)NC(=O)Nc2ccc(Cl)cc21 |
| 4.8 nM | CC[C@H]1C(=O)Nc2ccc(F)cc2N1C(=O)OC(C)C [OPAVIRALINE] |
| 5.39 nM | O=C1Nc2ccc(Cl)cc2[C@@](C#Cc2ccccn2)(C(F)(F)F)O1 |
| 2 nM | COc1ccc2c(c1)[C@@](C#CC1CC1)(C(F)(F)F)OC(=O)N2 |
| 3.8 nM | O=C1Nc2ccc(Cl)cc2[C@@](C#Cc2ccco2)(C(F)(F)F)O1 |
| 7.35 nM | O=C1Nc2ccc(F)cc2[C@@](C#CC2CC2)(C(F)(F)F)O1 |
| 10.3 nM | O=C1Nc2ccccc2[C@@](C#CC2CC2)(C(F)(F)F)O1 |
| 279 nM | O=C1Nc2ccc(-c3ccccc3)cc2[C@@](C#CC2CC2)(C(F)(F)F)O1 |
| 2.68 nM | CC(C)=CCO[C@]1(C(F)(F)F)OC(=O)Nc2ccc(Cl)cc21 |
| 10.1 nM | CC(C)CCO[C@]1(C(F)(F)F)OC(=O)Nc2ccc(Cl)cc21 |
| 32 nM | CCCO[C@@](C#CC1CC1)(c1cc(CC)c(C)[nH]c1=O)C(F)(F)F |
| 3.9 nM | C=CCO[C@]1(C(F)(F)F)OC(=O)Nc2ccc(Cl)cc21 |
| 18.3 nM | CCO[C@]1(C(F)(F)F)OC(=O)Nc2ccc(Cl)cc21 |

| SMILES | IC90 |
| --- | --- |
| O=C1Nc2ccc([N+](=O)[O-])cc2[C@@](C#CC2CC2)(C(F)(F)F)O1 | 0.83 nM |
| Nc1ccc2c(c1)[C@@](C#CC1CC1)(C(F)(F)F)OC(=O)N2 | 20.6 nM |
| O=C1Nc2cccc(F)c2[C@@](C#CC2CC2)(C(F)(F)F)O1 | 4.35 nM |
| CNc1ccc2c(c1)[C@@](C#CC1CC1)(C(F)(F)F)OC(=O)N2 | 9.02 nM |
